pIC50: −log10 of the molar value. Where two headings read alike, the source gives them in different places.
How the values were obtained:
[1] = cited from earlier work
NMuMG cells [2] = experiment: E-cadherin, ZO1 and vimentin immunofluorescence in TGFβ-treated NMuMG cells; assay type: cell-based, murine; conditions: four days TGFβ plus inhibitor
Method: NMuMG and Py2T cells were trypsinized, washed, seeded at 1000 cells/well, resuspended in 40 μl growth medium with a Multidrop-384 (Titertek) in 384-well microplates (Greiner, 781091), and grown overnight at 37°C, 5% CO2. The next day, 111 μl growth medium was added with the Multidrop-384 to 1 μl of the 2 mM library compounds of which 10 μl was transferred with a 384-well pipettor (VPrep, Agilent, US) to the cell assay plate and equilibrated for 10 min (final compound concentration 3 μM). For screenings at 300 nM or 30 nM, the compounds were diluted 1:10 or 1:100 in growth medium, respectively, before use. […]
Cells were imaged using the automated epifluorescence microscope ImageXpress Micro from Molecular Devices (Sunnyvale CA, USA) equipped with a plate-loading robot (CRS Catalyst, Thermo Scientific). […] The images were automatically analyzed by MetaXpress and segmented into sub-cellular structures based on morphological features such as object size and fluorescence distribution. Fluorescence distribution was a measure of the threshold intensity above local background and was adjusted for all parameters (nuclei, FA, SF and FN) by means of the respective positive and negative controls to compensate for inter-experimental variations between the different screening batches. […] Vimentin was quantified similar to SF and FN using the Angiogenesis module. […]

NMuMG cells [3] = experiment: High-content microscopy EMT screen in TGFβ-treated NMuMG cells (FA, SF, FN, cell count); assay type: cell-based, murine
PDGFRB = PDGFRB (Homo sapiens, UniProt P09619); experiment: Biochemical kinase profiling (33PanQinase radiometric assay)
VEGFR3 = molecular target: T1, VEGFR3 (Homo sapiens, UniProt P35916); experiment: as above; conditions: ATP at apparent Km
T1 construct: purchased ProQinase (Freiburg, Germany)

FGFR2 = FGFR2 (Homo sapiens, UniProt P21802); experiment: as above
Sequence of FGFR2 (P21802 22-821): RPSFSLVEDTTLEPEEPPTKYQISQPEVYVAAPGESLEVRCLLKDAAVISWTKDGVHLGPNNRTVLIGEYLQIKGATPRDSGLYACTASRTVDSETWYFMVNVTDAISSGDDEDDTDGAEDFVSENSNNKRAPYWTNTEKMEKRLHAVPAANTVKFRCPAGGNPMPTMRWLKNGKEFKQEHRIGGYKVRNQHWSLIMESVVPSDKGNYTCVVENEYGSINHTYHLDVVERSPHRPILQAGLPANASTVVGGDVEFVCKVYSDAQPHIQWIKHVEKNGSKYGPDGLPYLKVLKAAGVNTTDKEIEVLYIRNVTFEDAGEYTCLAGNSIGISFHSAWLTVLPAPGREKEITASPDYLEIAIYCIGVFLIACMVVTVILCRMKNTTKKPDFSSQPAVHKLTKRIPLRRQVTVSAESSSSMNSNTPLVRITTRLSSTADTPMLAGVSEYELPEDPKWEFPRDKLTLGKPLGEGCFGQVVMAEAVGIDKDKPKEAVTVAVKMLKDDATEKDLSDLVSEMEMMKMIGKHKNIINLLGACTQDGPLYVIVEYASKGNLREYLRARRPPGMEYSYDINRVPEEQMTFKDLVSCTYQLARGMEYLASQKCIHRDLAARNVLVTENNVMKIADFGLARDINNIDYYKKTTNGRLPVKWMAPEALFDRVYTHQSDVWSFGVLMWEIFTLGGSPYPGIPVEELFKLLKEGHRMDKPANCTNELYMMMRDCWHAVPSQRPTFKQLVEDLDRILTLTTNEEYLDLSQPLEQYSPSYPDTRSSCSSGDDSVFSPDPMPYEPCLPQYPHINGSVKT

FGFR4 = FGFR4 (Homo sapiens, UniProt P22455); experiment: as above
Sequence of FGFR4 (P22455 22-802): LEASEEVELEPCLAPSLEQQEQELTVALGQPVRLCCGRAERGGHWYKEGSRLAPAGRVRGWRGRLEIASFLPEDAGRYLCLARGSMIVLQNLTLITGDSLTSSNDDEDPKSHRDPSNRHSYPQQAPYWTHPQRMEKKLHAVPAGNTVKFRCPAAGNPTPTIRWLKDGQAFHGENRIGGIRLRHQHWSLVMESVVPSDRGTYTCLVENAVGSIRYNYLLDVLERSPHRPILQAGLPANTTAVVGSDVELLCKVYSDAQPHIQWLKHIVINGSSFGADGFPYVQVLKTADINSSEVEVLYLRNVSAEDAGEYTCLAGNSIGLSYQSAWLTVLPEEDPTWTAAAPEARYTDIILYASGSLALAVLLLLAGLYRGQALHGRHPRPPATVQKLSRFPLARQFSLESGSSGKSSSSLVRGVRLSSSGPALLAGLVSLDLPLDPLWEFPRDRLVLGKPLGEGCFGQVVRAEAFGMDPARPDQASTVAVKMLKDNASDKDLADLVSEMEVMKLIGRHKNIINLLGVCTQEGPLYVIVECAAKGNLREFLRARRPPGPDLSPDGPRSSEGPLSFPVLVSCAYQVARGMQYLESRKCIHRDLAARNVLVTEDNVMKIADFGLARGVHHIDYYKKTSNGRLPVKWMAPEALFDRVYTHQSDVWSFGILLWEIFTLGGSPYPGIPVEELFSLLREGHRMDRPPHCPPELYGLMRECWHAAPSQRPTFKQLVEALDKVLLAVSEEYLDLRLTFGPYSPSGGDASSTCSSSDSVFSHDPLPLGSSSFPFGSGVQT

TGFBR2 = TGFBR2 (Homo sapiens, UniProt P37173); experiment: as above; conditions: read-out: TGFBR2 IC50; ATP at apparent Km
c-KIT = molecular target: T2, c-KIT (Homo sapiens, UniProt P10721); experiment: as above; conditions: ATP at apparent Km
T2 construct: purchased ProQinase (Freiburg, Germany)

VEGFR1 = molecular target: T3, VEGFR1 (Homo sapiens, UniProt P17948); experiment: as above; conditions: ATP at apparent Km
T3 construct: purchased ProQinase (Freiburg, Germany)

EGFR = EGFR (Homo sapiens, UniProt P00533); experiment: as above
Sequence of EGFR (P00533 25-1210): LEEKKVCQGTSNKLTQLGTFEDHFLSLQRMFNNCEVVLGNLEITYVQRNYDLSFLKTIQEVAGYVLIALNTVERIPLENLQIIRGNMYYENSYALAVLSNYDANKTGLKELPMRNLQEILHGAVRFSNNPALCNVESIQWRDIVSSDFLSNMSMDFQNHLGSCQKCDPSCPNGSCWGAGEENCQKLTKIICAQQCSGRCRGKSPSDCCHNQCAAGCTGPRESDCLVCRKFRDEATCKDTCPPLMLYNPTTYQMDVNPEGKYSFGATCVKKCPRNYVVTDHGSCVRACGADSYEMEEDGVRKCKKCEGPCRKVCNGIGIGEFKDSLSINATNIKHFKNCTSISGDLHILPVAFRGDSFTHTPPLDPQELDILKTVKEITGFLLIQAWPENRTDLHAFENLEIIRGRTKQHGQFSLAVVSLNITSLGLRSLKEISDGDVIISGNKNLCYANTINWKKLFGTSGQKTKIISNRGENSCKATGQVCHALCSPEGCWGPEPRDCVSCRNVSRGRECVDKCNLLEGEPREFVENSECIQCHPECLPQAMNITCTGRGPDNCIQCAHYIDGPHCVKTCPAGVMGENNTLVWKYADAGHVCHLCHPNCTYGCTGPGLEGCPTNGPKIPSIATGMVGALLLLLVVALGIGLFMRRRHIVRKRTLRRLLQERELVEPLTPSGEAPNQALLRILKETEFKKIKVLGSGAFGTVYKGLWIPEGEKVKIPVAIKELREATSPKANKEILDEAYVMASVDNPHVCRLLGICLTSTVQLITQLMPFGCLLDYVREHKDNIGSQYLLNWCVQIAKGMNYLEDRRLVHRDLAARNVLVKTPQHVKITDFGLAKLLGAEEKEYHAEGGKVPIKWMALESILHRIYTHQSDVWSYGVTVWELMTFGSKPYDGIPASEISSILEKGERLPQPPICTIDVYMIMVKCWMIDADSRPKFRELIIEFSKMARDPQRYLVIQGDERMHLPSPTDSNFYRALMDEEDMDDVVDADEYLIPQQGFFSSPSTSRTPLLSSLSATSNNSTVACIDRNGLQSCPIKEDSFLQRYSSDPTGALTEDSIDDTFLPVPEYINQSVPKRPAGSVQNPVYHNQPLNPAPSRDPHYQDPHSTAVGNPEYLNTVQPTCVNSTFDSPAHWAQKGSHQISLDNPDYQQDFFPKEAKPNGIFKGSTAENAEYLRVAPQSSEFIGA

SRC = SRC (Homo sapiens, UniProt P12931); experiment: as above
Sequence of SRC (P12931 whole entry): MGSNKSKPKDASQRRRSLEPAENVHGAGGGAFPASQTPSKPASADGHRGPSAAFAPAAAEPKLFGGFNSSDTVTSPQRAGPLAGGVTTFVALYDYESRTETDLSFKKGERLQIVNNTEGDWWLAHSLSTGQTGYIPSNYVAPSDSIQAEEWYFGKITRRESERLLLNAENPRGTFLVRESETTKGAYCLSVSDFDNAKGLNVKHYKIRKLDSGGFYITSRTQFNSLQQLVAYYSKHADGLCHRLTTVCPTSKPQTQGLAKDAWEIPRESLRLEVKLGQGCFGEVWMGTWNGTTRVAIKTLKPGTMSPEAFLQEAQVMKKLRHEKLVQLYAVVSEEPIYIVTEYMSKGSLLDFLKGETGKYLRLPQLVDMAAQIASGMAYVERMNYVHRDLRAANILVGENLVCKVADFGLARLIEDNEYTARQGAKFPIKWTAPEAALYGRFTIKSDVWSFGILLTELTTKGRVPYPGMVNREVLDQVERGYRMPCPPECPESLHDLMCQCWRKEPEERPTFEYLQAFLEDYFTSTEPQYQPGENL

PDGFRA = PDGFRA (Homo sapiens, UniProt P16234); experiment: as above
FGFR1 = FGFR1 (Homo sapiens, UniProt P11362); experiment: as above
Sequence of FGFR1 (P11362 22-822): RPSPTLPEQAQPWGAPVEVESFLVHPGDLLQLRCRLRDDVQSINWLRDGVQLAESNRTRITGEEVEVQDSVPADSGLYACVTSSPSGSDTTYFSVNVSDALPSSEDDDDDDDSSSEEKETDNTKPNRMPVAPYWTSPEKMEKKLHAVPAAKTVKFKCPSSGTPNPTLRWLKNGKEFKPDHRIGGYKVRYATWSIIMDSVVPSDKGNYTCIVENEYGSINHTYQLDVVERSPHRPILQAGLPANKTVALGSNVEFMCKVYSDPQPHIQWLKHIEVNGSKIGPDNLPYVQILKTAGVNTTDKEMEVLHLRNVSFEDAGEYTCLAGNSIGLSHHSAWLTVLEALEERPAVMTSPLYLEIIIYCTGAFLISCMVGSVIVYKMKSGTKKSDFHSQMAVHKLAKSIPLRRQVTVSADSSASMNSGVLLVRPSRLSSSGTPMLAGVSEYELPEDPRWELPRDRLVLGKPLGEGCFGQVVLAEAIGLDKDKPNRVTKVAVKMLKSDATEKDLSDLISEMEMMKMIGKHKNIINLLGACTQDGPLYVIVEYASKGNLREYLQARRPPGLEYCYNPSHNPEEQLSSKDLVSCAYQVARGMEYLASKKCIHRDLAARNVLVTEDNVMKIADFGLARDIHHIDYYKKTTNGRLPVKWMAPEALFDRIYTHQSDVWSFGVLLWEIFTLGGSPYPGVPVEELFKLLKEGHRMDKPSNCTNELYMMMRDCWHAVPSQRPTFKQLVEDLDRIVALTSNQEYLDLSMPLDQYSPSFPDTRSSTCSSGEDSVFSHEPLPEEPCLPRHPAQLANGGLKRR

FGFR3 = FGFR3 (Homo sapiens, UniProt P22607); experiment: as above
Sequence of FGFR3 (P22607 23-806): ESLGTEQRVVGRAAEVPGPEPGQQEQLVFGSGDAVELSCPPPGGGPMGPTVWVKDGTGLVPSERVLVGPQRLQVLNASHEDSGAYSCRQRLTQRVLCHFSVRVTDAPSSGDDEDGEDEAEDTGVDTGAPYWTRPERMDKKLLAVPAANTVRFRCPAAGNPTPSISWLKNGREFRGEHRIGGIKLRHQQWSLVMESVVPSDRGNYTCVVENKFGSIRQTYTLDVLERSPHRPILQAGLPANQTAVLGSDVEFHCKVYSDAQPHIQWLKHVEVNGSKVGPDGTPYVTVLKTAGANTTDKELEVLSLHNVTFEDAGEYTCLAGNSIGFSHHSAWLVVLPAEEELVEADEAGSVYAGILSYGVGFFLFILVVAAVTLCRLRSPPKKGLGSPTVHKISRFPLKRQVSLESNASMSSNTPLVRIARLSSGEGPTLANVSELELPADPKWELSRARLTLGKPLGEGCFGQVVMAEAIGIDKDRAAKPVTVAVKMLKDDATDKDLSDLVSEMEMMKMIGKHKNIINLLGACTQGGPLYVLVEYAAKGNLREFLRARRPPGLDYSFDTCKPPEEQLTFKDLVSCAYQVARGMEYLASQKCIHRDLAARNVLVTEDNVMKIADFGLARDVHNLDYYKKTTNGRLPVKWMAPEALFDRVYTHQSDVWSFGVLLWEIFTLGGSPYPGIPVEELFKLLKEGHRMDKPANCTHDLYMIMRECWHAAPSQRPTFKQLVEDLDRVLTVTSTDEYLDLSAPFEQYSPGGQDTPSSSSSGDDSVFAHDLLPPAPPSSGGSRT

ROCK = ROCK cellular assay (MLC Thr18/Ser19 phosphorylation ELISA in A7r5 cells); assay type: cell-based, rat; conditions: 90 min compound
Py2T cells = experiment: High-content microscopy EMT assay in TGFβ-treated Py2T breast cancer cells; assay type: cell-based, murine
[4] = system: SMAD3 phosphorylation (TGFBR activity); experiment: Quantification of SMAD3 phosphorylation in TGFβ-treated NMuMG cells (immunoblot, LI-COR); assay type: cell-based, murine; conditions: one day TGFβ plus inhibitor
Method: NMuMG cells plated the day before were treated for one day with TGFβ and DMSO or an inhibitor as described in the figure legends. Cells were washed with PBS and lyzed in RIPA buffer (150 mM NaCl, 2 mM MgCl, 2 mM CaCl2, 0.5% Na-deoxycholate, 10% glycerol, 1% NP-40, 0.1% SDS, 50 mM Tris pH8 supplementary with 1 mM DTT, 10 mM NaF, 1 mM sodium orthovanadate and protease inhibitor cocktail (Roche)). The proteins were resolved using SDS-PAGE and transferred to PVDF membrane. For quantitative analysis of SMAD phosphorylation, the membrane was probed with p-SMAD2/3 and GAPDH specific primary antibodies followed by fluorescent secondary antibodies (LI-COR Biosciences). The signal was captured and quantified with the Odyssey CLx Imaging system and ImageJ software form 3 independent experiments.

[5] = Mus musculus, read-out: CCI IC50 (cell count increase)
[6] = Mus musculus, read-out: Emax (maximal effect on cell count)
[7] = NMuMG, TGFβ1 2 ng/ml plus compound, 4 days; parameter decreased by 50%; read-out: FA IC50 (focal adhesion formation)
[8] = NMuMG, TGFβ1 2 ng/ml plus compound, 4 days; parameter decreased by 50%; read-out: FN IC50 (fibronectin patch formation)
[9] = NMuMG, TGFβ1 2 ng/ml plus compound, 4 days; parameter decreased by 50%; read-out: SF IC50 (stress fibers)
[10] = NMuMG; cell count decreased by 50% compared to DMSO control; read-out: Tox IC50
[11] = NMuMG; cell count increased by 50% compared to 100% with 10 μM SB-431542; read-out: CCI IC50 (cell count increase)
[12] = NMuMG; compared to reference 10 μM SB-431542 = 100%
[13] = NMuMG; mean of IC50 values obtained for FA, SF, FN; read-out: EMT (FA/SF/FN) combined IC50

For `CNC(=O)c1cc(Oc2ccc(NC(=O)Nc3ccc(Cl)c(C(F)(F)F)c3)cc2)ccn1` [Sorafenib], the plasma protein binding [1] is given as 99.7%, the “effect on TGFβ-induced loss of E-cadherin and ZO1 from junctions and vimentin filament formation” value (NMuMG cells [2]) is given as “only marginally stabilized” and the pIC50 (NMuMG cells [3]; Mus musculus, 96 h, read-out: FA IC50 (focal adhesion formation)) is given as 5.68. It also gave a pIC50 (NMuMG cells [3]; Mus musculus, 96 h, read-out: FN IC50 (fibronectin patch formation)) of 5.87, a pIC50 (NMuMG cells [3]; Mus musculus, 96 h, read-out: SF IC50 (stress fibers)) of 5.41 and a pIC50 (NMuMG cells [3]; [5]) of 6.99. It also gave a pIC50 (NMuMG cells [3]; Mus musculus, read-out: EMT (FA/SF/FN) combined IC50) of 5.61, an Emax (NMuMG cells [3]; [6]) of 17.5% and a pIC50 (NMuMG cells [3]; Mus musculus, read-out: Tox IC50) of 4.90.

With `Cc1cccc(-c2[nH]ncc2-c2ccc3ncccc3n2)n1` [RepSox] the pIC50 (PDGFRB; read-out: PDGFRB IC50, ATP at apparent Km) was 5.36, the pIC50 (VEGFR3) was 5.79 and the pIC50 (FGFR2; read-out: FGFR2 IC50, ATP at apparent Km) was 5.32. It also gave a pIC50 (FGFR4; read-out: FGFR4 IC50, ATP at apparent Km) of under 5.00, a pIC50 (TGFBR2) of 5.51 and a pIC50 (c-KIT) of 5.28. It also gave a pIC50 (VEGFR1) of 5.97, a pIC50 (EGFR; read-out: EGFR IC50, ATP at apparent Km) of under 5.00 and a pIC50 (NMuMG cells [3]; [7]) of 7.33. It also gave a pIC50 (NMuMG cells [3]; [8]) of 7.36, a pIC50 (NMuMG cells [3]; [9]) of 7.26 and a pIC50 (NMuMG cells [3]; [10]) of under 5.52. For the same compound, the pIC50 (NMuMG cells [3]; [11]) was 7.06, the “Emax (maximal effect on cell count)” value (NMuMG cells [3]; [12]) was 100% and the pIC50 (NMuMG cells [3]; [13]) was 7.31. It also gave a pIC50 (SRC; read-out: SRC IC50, ATP at apparent Km) of 5.21, a pIC50 (PDGFRA; read-out: PDGFRA IC50, ATP at apparent Km) of under 5.00 and a pIC50 (FGFR1; read-out: FGFR1 IC50, ATP at apparent Km) of under 5.00. It also gave a pIC50 (FGFR3; read-out: FGFR3 IC50, ATP at apparent Km) of under 5.00.

`C[C@@H](N)[C@H]1CC[C@H](C(=O)Nc2ccncc2)CC1.Cl.Cl` [Y-27632 2HCl] showed a pIC50 (ROCK) of 6.37, a pIC50 (Py2T cells; Py2T, TGFβ plus compound, 4 days, read-out: FA IC50 (focal adhesions)) of 5.67 and a pIC50 (Py2T cells; Py2T, TGFβ plus compound, 4 days, read-out: FN IC50 (fibronectin patches)) of 5.32. For the same compound, the pIC50 (Py2T cells; Py2T, TGFβ plus compound, 4 days, read-out: SF IC50 (stress fibers)) was 5.77, the pIC50 (Py2T cells; Py2T, cell count decreased by 50% compared to DMSO control, read-out: Tox IC50) was under 4.60 and the pIC50 (Py2T cells; Py2T, compared to 10 μM SB-431542, read-out: CCI IC50 (cell count increase)) was 6.11. For the same compound, the “Emax (maximal effect on cell count)” value (Py2T cells; Py2T, compared to reference 10 μM SB-431542 = 100%) was 43.8%, the pIC50 (NMuMG cells [3]; [7]) was 5.58 and the pIC50 (NMuMG cells [3]; [8]) was 5.93. The pIC50 (NMuMG cells [3]; [9]) was 5.88, the pIC50 (NMuMG cells [3]; [10]) was under 4.60 and the pIC50 (NMuMG cells [3]; [11]) was 5.95. The “Emax (maximal effect on cell count)” value (NMuMG cells [3]; [12]) was 17.6%, the pIC50 (NMuMG cells [3]; [13]) was 5.77 and the “SMAD3 phosphorylation (p-SMAD3/GAPDH)” value [4] was “unchanged”.

With `NC(=O)c1ccc(-c2nc(-c3ccc4c(c3)OCO4)c(-c3ccccn3)[nH]2)cc1` [SB-431542] the pIC50 (PDGFRB) was under 5.00, the pIC50 (FGFR2) was under 5.00 and the pIC50 (FGFR4) was under 5.00. For the same compound, the pIC50 (Py2T cells; Mus musculus, 96 h, Py2T, TGFβ plus compound, 4 days, read-out: FA IC50 (focal adhesions)) was 6.81, the pIC50 (Py2T cells; Mus musculus, 96 h, Py2T, TGFβ plus compound, 4 days, read-out: FN IC50 (fibronectin patches)) was 6.78 and the pIC50 (Py2T cells; Mus musculus, 96 h, Py2T, TGFβ plus compound, 4 days, read-out: SF IC50 (stress fibers)) was 6.76. It also gave a pIC50 (Py2T cells; Mus musculus, Py2T, TGFβ-induced EMT, read-out: IC50 for reduction of EMT markers) of about 6.70, a pIC50 (Py2T cells; Mus musculus, Py2T, cell count decreased by 50% compared to DMSO control, read-out: Tox IC50) of 5.13 and a pIC50 (Py2T cells; [5]) of 6.85. The Emax (Py2T cells; [6]) was 100%, the pIC50 (EGFR) was under 5.00 and the “effect on TGFβ-induced loss of E-cadherin and ZO1 from junctions and vimentin filament formation” value (NMuMG cells [2]) was “completely blocked”. The pIC50 (NMuMG cells [3]; Mus musculus, 96 h; NMuMG, TGFβ1 2 ng/ml plus compound, 4 days; parameter decreased by 50%; read-out: FA IC50 (focal adhesion formation)) was 6.61, the pIC50 (NMuMG cells [3]; Mus musculus, 96 h; NMuMG, TGFβ1 2 ng/ml plus compound, 4 days; parameter decreased by 50%; read-out: FN IC50 (fibronectin patch formation)) was 6.71 and the pIC50 (NMuMG cells [3]; Mus musculus, 96 h; NMuMG, TGFβ1 2 ng/ml plus compound, 4 days; parameter decreased by 50%; read-out: SF IC50 (stress fibers)) was 6.74. For the same compound, the pIC50 (NMuMG cells [3]; Mus musculus; NMuMG, TGFβ treatment, proof of concept; read-out: IC50 in all three parameters (focal adhesion formation, stress fibers, fibronectin deposition)) was about 6.70, the pIC50 (NMuMG cells [3]; Mus musculus; NMuMG; cell count decreased by 50% compared to DMSO control; read-out: Tox IC50) was under 4.60 and the pIC50 (NMuMG cells [3]; Mus musculus; NMuMG; mean of IC50 values obtained for FA, SF, FN; read-out: EMT (FA/SF/FN) combined IC50) was 6.41. It also gave a pIC50 (NMuMG cells [3]; Mus musculus; read-out: CCI IC50 (cell count increase)) of 6.23, an Emax (NMuMG cells [3]; Mus musculus; read-out: Emax (maximal effect on cell count)) of 100% and a pIC50 (SRC) of under 5.00. The pIC50 (PDGFRA) was under 5.00, the “SMAD3 phosphorylation (p-SMAD3/GAPDH)” value [4] was “blocked” and the pIC50 (FGFR1) was under 5.00. For the same compound, the pIC50 (FGFR3) was under 5.00.

Reference: article PMC5041959, “A high-content EMT screen identifies multiple receptor tyrosine kinase inhibitors with activity on TGFβ receptor” (Oncotarget, 2016)
